According to US20240115592A1, “PGC-1alpha EXPRESSION PROMOTING AGENT, MUSCLE-BUILDING AGENT AND MITOCHONDRIA ACTIVATING AGENT” (YAMASA CORPORATION, priority 2020, published 2024):

Assays:
[1] = system: PGC-1α; conditions: neurons; Patent Literature 1; cited from earlier work
[2] = system: Myogenin; assay: Myogenin gene expression promoting effect (II) (Example 4); assay type: cell-based, Mouse; conditions: C2C12 cells, 4-6 days, vs control
Method: (§1) Mouse myoblast cell line C2C12 cells (RIKEN BRC, RCB0987) were suspended in growth medium (Dulbecco's modified Eagle's Medium supplemented with 10% FBS, 100 units/ml of penicillin, 100 μg/ml of streptomycin), seeded in 24-well plates, and incubated in a 37° C., 5% CO2 incubator until the cell density reached 70-90%. […] After culturing the cells for 4-6 days while exchanging the medium once every 2 days, the medium was removed, and total RNA was extracted from the cells using the RNeasy Mini kit (QIAGEN).
(§2) A level of Myogenin mRNA expression, a marker gene for myotube cell differentiation, was evaluated by the following method:
(§3) Cell culture and treatment with the test substances, total RNA extraction and reverse transcription reaction were performed as in Example 2. Real-time PCR analysis was used to determine mRNA expression levels of Myogenin and β-actin as an internal standard. Statistical analysis was also performed in the same method as that of Example 1.

[3] = system: Myh7; assay: Myh7 gene expression promoting effect (II) (Example 6); assay type: cell-based, Mouse; conditions: C2C12 cells, 4-6 days, vs control
Method: as §1
(§4) A level of Myh7 mRNA expression encoding a slow-muscle type myosin protein was evaluated using the following method:
as §3, with “Myh7” for “Myogenin”

[4] = system: C2C12 cells; assay: Myotube cell diameter increasing effect (II) (Example 10); assay type: cell-based, Mouse; conditions: 5-6 days; for myotube cell diameter (photographs): FIG. 13; for myotube cell diameter (ImageJ, average of 50 cells): vs control, FIGS. 14 to 17
Method: Cell culture and addition of test substances were carried out by the same method as that of Example 2. The cells were cultured for 5-6 days while exchanging a differentiation inducing medium containing the test substances once every 2 days, and five positions near the center of the wells were then photographed at magnifications of 100.
Also, using ImageJ image analysis software, the diameters of ten myotube cells per a photograph were measured in order from the myotube cell having the largest diameter, and an average of 50 cells was determined to be the diameter of the myotube cell in each well. Statistical analysis was also performed by the same method as that of Example 2.

[5] = system: mitochondria; conditions: Patent Literature 3; cited from earlier work
[6] = system: PGC-1α; assay: PGC-1α gene expression promoting effect (I), real-time PCR (Example 1); assay type: cell-based, Mouse; conditions: C2C12 cells, 1 mM or 5 mM disodium cytidylate, 6 days, corrected by β-actin, vs control; FIG. 1
Method: Mouse myoblast cell line C2C12 cells (RIKEN BRC, RCB0987) were suspended in growth medium (Dulbecco's modified Eagle's Medium supplemented with 10% FBS, 100 units/ml of penicillin, 100 μg/ml of streptomycin), seeded in 24-well plates, and incubated in a 37° C., 5% CO2 incubator until the cell density reached 70-90%. […] After culturing the cells for 6 days while exchanging the medium once every 2 days, the medium was removed, and total RNA was extracted from the cells using the RNeasy Mini kit (QIAGEN). Unless otherwise stated, each sample n=6 was used for the study, including the following Examples. Using the total RNA as a template, a reverse transcription reaction solution was prepared using the ReverTra Ace® qPCR RT Kit (Toyobo). The reverse transcription reaction solution, GoTaq® qPCR Master Mix (Promega), and a real-time PCR device, Thermal Cycler Dice Real Time System (Takara Bio), were used to measure mRNA expression levels of PGC-1α and β-actin as an internal standard. Analysis was performed by relative quantification, and mRNA expression levels were corrected using the β-actin mRNA expression level as an endogenous control. Dunnett's multiple comparison test was performed for statistical analysis. The threshold of statistical significance was set to 5%.

[7] = system: PGC-1α; assay: PGC-1α gene expression promoting effect (II), real-time PCR (Example 2); assay type: cell-based, Mouse; conditions: C2C12 cells, 4-6 days, corrected by β-actin, vs control; FIG. 2
Method: as §1
Using the total RNA as a template, a reverse transcription reaction solution was prepared using the ReverTra Ace® qPCR RT Kit (Toyobo). The reverse transcription reaction solution, GoTaq® qPCR Master Mix (Promega), and a real-time PCR device, Thermal Cycler Dice Real Time System (Takara Bio), were used to measure the mRNA expression levels of PGC-1α and β-actin as an internal standard. Analysis was performed by relative quantification, and the mRNA expression level was corrected using the β-actin mRNA expression level as an endogenous control. Statistical analysis was performed by t-test or Dunnett's multiple comparison test using the differentiation induction medium treatment group without the test substances as a control. The threshold of statistical significance was set to 5%.

[8] = system: Myogenin; assay: Myogenin gene expression promoting effect (I) (Example 3); assay type: cell-based, Mouse; conditions: C2C12 cells, disodium cytidylate, 6 days, vs control; FIG. 3
Method: as §2
(§5) Mouse myoblast cell line C2C12 cells were suspended in growth medium, seeded in 24-well plates, and incubated in a 37° C., 5% CO2 incubator until the cell density reached 70-90%. The growth medium was removed, and exchanged to a differentiation induction medium containing 1 mM disodium cytidylate or 1 mM disodium cytidylate or containing no cytidylic acid. The cells were cultured for 6 days while exchanging the medium once every 2 days. Total RNA extraction and reverse transcription reaction were performed as in Example 1. Real-time PCR analysis was used to determine mRNA expression levels of Myogenin and β-actin as an internal standard. Statistical analysis was performed in the same method as that of Example 1.

[9] = system: Myh7; assay: Myh7 gene expression promoting effect (I) (Example 5); assay type: cell-based, Mouse; conditions: C2C12 cells, 5 mM disodium cytidylate, 4 days, vs control; FIG. 6
Method: as §4
as §5, with “5” for “1 mM disodium cytidylate or 1”, “4” for “6”, “days, and the medium was then removed, and the total” for “days. Total”, “Myh7” for “Myogenin”, “Welch's t-test” for “Statistical analysis”, “used for statistical analysis. The threshold for statistical significance was set to 5%.” for “performed in the same method as that of Example 1.”

[10] = system: C2C12 cells; assay: Mitochondrial DNA copy number increasing effect (I) (Example 7); assay type: cell-based, Mouse; conditions: 1 mM or 5 mM disodium cytidylate, 6 days, n=3, FIG. 9
Method: Cell culture and addition of test substance were carried out by the same method as that of Example 1. The cells were cultured for 6 days while exchanging a differentiation induction medium containing the test substance once every 2 days, the medium was then removed and total DNA was extracted from the cells using DNeasy Blood & Tissue kit (QIAGEN). Extracted DNA, GoTaq® qPCR Master Mix (Promega) and a real-time PCR device, Thermal Cycler Dice Real Time System (Takara Bio), were used to determine COX2 (Cytochrome c oxidase subunit 2), a gene encoded in the mitochondrial DNA, and PPIA (Cyclophilin A), a gene encoded in […] DNA as an internal standard. The amount of COX2 present relative to the amount of PPIA present was evaluated as the mitochondrial DNA copy number. Statistical analysis was performed by the same method as that of Example 1. This Example was studied with n=3.

[11] = system: C2C12 cells; assay: Mitochondrial DNA copy number increasing effect (II) (Example 8); assay type: cell-based, Mouse; conditions: 6 days, n=3, FIG. 10
Method: Cell culture and addition of test substances were carried out in the same method as that of Example 2. The cells were cultured for 6 days, the medium was then removed and total DNA was extracted from the cells using DNeasy Blood & Tissue kit (QIAGEN).
Extracted DNA, GoTaq® qPCR Master Mix (Promega) and a real-time PCR device, Thermal Cycler Dice Real Time System (Takara Bio), were used to determine COX2 (Cytochrome c oxidase subunit 2), a gene encoded in the mitochondrial DNA, and PPIA (Cyclophilin A), a gene encoded in […] DNA, as an internal standard.
The amount of COX2 present relative to the amount of PPIA present was evaluated as the mitochondrial DNA copy number. Statistical analysis was performed by the same method as that of Example 1. This Example was studied with n=3.

[12] = system: C2C12 cells; assay: Myotube cell diameter increasing effect (I) (Example 9); assay type: cell-based, Mouse; conditions: 6 days; for Average myotube cell diameter: control 53.9
Method: Cell culture and addition of a test substance were carried out by the same method as that of Example 1. The cells were cultured for 6 days while exchanging a differentiation inducing medium containing the test substance once every 2 days, and five positions near the center of the wells were then photographed at magnifications of 100. Using ImageJ image analysis software, the diameters of ten myotube cells per a photograph were measured in order from the myotube cell having the largest diameter, and an average of 50 cells was determined to be the diameter of the myotube cell in each well. Statistical analysis was performed by the same method as that of Example 1. Photographs of representative examples of the respective groups are shown in FIG. 11, and the measured results of the average myotube cell diameter are shown in Table 1 and FIG. 12.

Row | SMILES | Myogenin mRNA expression level ([2]; FIG. 5) | myotube cell diameter (photographs) [4] | myotube cell diameter (ImageJ, average of 50 cells) [4] | PGC-1α mRNA expression level [7] | Myogenin mRNA expression level ([2]; FIG. 4) | Myh7 mRNA expression level ([3]; FIG. 7) | mitochondrial DNA copy number (COX2 relative to PPIA) [11] | other results
1 | CCc1oc(=O)c(Cc2c(O)c(C)c(CC)oc2=O)c(O)c1C [Helipyrone A] | – | – | – | – | – | – | – | PGC-1α production [1]: promotes PGC-1α production in neurons
2 | Nc1ccn([C@@H]2O[C@H](CO)[C@@H](O)[C@H]2O)c(=O)n1 [cytidine] | excellent myotube cell differentiation promoting effect | significantly increased | concentration-dependently and remarkably increased | – | – | – | – | Myh7 mRNA expression level ([3]; FIG. 8): markedly enhanced
3 | O=C(O)c1cc(C(=O)O)c2c(n1)C(=O)C(=O)c1cc(C(=O)O)[nH]c1-2 [pyrroloquinoline quinone] | – | – | – | – | – | – | – | mitochondria activating effects [5]: exhibits mitochondria activating effects
4 | Nc1ccn([C@@H]2O[C@H](COP(=O)(O)O)[C@@H](O)[C@H]2O)c(=O)n1 [cytidylic acid] | remarkably enhanced | significantly increased | concentration-dependently and remarkably increased | concentration-dependently and remarkably enhanced | remarkably enhanced | remarkably enhanced | concentration-dependently and remarkably enhanced | PGC-1α mRNA expression level [6]: concentration-dependently and remarkably enhanced; Myogenin mRNA expression level [8]: concentration-dependently and remarkably enhanced; Myh7 mRNA expression level [9]: markedly enhanced; mitochondrial DNA copy number (COX2 relative to PPIA) [10]: concentration-dependently and remarkably enhanced; Average myotube cell diameter ([12]; 1 mM CMP): 61.1 μm; Average myotube cell diameter ([12]; 5 mM CMP): 62.5 μm; myotube cell diameter ([12]; vs control, FIGS. 11 and 12): concentration-dependently and remarkably increased
5 | O=c1ccn([C@@H]2O[C@H](COP(=O)(O)O)[C@@H](O)[C@H]2O)c(=O)[nH]1 [uridylic acid] | – | significantly increased | significantly increased | concentration-dependently and remarkably enhanced | remarkably enhanced | remarkably enhanced | concentration-dependently and remarkably enhanced | –
6 | O=c1ccn([C@@H]2O[C@H](CO)[C@@H](O)[C@H]2O)c(=O)[nH]1 [uridine] | – | significantly increased | concentration-dependently and remarkably increased | – | – | – | – | –
